For 19 compounds, Emax and EC50 results are on record in US20060247261A1 (priority 2002, published 2006).

SMILES strings stand for the structures. Bounds are passed on as bounds.

The target in this test is T1, human cannabinoid CB2 receptor (Homo sapiens, UniProt P34972).
T1 construct: expressed in transfected cells; host or cells: Saccharomyces cerevisiae strain MMY23 (expresses a chimeric Gpa1/human Galpha-i3 G-protein alpha subunit)
Put plainly: Cannabinoid CB2 receptor agonist activity, yeast reporter assay. It counts as cell-based. The settings on record: for Emax: read-out: efficacy (Emax) at the cloned human cannabinoid CB2 receptor. The method, boiled down:
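Agonism read in S. cerevisiae strain MMY23 with the human CB2 receptor integrated at ura3 under the GPD promoter, coupled through a Gpa1/human Gαi3 C-terminal chimeric G-alpha. Compounds were added in DMSO (1% final). Fluorescence versus concentration was fitted by four-parameter fit to give a concentration effect value.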
On the technique in general: A reporter such as luciferase makes a cellular process visible.

T1 sequence (P34972 whole entry): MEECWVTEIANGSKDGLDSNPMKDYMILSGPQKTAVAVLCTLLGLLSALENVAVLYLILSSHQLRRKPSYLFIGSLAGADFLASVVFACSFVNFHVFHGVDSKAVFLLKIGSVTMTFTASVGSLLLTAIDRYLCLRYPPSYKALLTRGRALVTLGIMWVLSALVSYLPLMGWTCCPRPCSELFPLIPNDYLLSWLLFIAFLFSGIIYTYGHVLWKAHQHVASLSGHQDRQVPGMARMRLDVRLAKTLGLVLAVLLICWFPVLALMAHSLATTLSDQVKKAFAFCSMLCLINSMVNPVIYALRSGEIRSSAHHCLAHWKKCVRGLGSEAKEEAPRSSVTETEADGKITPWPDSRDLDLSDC

For `CN(Cc1ccccc1)C(=O)c1cnc(Nc2ccccc2Cl)nc1C(F)(F)F` [Example 96, 2-(2-Chloro-phenylamino)-4-trifluoromethyl-pyrimidine-5-carboxylic acid benzyl-methyl-amide], the Emax (usually the greatest response seen or fitted, relative to the assay's reference) is > 50%. With `N#Cc1cccc(Nc2ncc(C(=O)NCc3ccccc3)c(C(F)(F)F)n2)c1` [Example 97, 2-(3-Cyano-phenylamino)-4-trifluoromethyl-pyrimidine-5-carboxylic acid benzylamide], the EC50 (commonly the midpoint of the concentration-response curve) is 0.02 to 1 µM and the Emax is > 50%. Take `O=C(NCc1ccccc1)c1cnc(Nc2c(Cl)cccc2Cl)nc1C(F)(F)F` [Example 98, 2-(2,6-Dichloro-phenylamino)-4-trifluoromethyl-pyrimidine-5-carboxylic acid benzylamide]: the EC50 was 0.02 to 1 µM and the Emax was > 50%. `O=C(NCc1ccc(F)cc1)c1cnc(Nc2cccc(Cl)c2Cl)nc1C(F)(F)F` [Example 99, 2-(2,3-Dichloro-phenylamino)-4-trifluoromethyl-pyrimidine-5-carboxylic acid 4-fluoro-benzylamide]: the EC50 is 0.02 to 1 µM and the Emax is > 50%. Consider `O=C(NCc1ccc(F)cc1)c1cnc(Nc2ccc(Cl)cc2Cl)nc1C(F)(F)F` [Example 100, 2-(2,4-Dichloro-phenylamino)-4-trifluoromethyl-pyrimidine-5-carboxylic acid 4-fluoro-benzylamide], for which the 50% effective concentration (EC50) lay within 0.02 to 1 µM and the Emax is > 50%. With `O=C(NCc1ccc(F)cc1)c1cnc(Nc2cc(Cl)ccc2Cl)nc1C(F)(F)F` [Example 101, 2-(2,5-Dichloro-phenylamino)-4-trifluoromethyl-pyrimidine-5-carboxylic acid 4-fluoro-benzylamide], the EC50 is 0.02 to 1 µM and the Emax is > 50%. For the compound `O=C(NCc1ccc(F)cc1)c1cnc(Nc2ccc(Cl)c(Cl)c2)nc1C(F)(F)F` [Example 102, 2-(3,4-Dichloro-phenylamino)-4-trifluoromethyl-pyrimidine-5-carboxylic acid 4-fluoro-benzylamide], the EC50 was 0.02 to 1 µM and the maximum response (Emax) is > 50%. `O=C(NCc1ccc(F)cc1F)c1cnc(Nc2cccc(Cl)c2)nc1C(F)(F)F` [Example 103, 2-(3-Chloro-phenylamino)-4-trifluoromethyl-pyrimidine-5-carboxylic acid 2,4-difluoro-benzylamide]: the EC50 fell in the range of 0.02 to 1 µM and the Emax is > 50%. In the same order, the values of `O=C(NCc1ccc(F)cc1)c1cnc(Nc2ccc(C(F)(F)F)c(F)c2)nc1C(F)(F)F` [Example 104, 2-(3-Fluoro-4-trifluoromethyl-phenylamino)-4-trifluoromethyl-pyrimidine-5-carboxylic acid 4-fluoro-benzylamide] are 0.02 to 1 µM and > 50%. As for `NC(=O)c1ccc(CNC(=O)c2cnc(Nc3cccc(Cl)c3)nc2C(F)(F)F)cc1` [Example 105, 2-(3-Chloro-phenylamino)-4-trifluoromethyl-pyrimidine-5-carboxylic acid 4-carbarnoyl-benzylamide], the EC50 was > 1 µM and the Emax is < 50%. `CC(C)(C)c1ccc(CNC(=O)c2cnc(Nc3cccc(Cl)c3)nc2C(F)(F)F)cc1` [Example 106, 2-(3-Chloro-phenylamino)-4-trifluoromethyl-pyrimidine-5-carboxylic acid 4-tert-butyl-benzylamide]: the EC50 was > 1 µM and the Emax is < 50%.

Turning to `CC(C)(C)OC(=O)Nc1ccc(CNC(=O)c2cnc(Nc3cccc(Cl)c3)nc2C(F)(F)F)cc1` [Example 107], the EC50 is > 1 µM and the Emax was < 50%. Take `C[C@@H](NC(=O)c1cnc(Nc2cccc(Cl)c2)nc1C(F)(F)F)c1ccccc1` [Example 108, 2-(3-Chloro-phenylamino)-4-trifluoromethyl-pyrimidine-5-carboxylic acid ((R)-1-phenyl-ethyl)-amide]: the concentration for a half-maximal effect (EC50) was > 1 µM and the Emax was < 50%. Regarding `O=C(NCc1ccc(F)c(Cl)c1)c1cnc(Nc2cccc(Cl)c2)nc1C(F)(F)F` [Example 109, 2-(3-Chloro-phenylamino)-4-trifluoromethyl-pyrimidine-5-carboxylic acid 3-chloro,4-fluoro-benzylamide], the EC50 was > 1 µM and the Emax is < 50%. On the same counts, the results for `CN(Cc1ccc(F)cc1)C(=O)c1cnc(Nc2cccc(Cl)c2)nc1C(F)(F)F` [Example 110, 2-(3-Chloro-phenylamino)-4-trifluoromethyl-pyrimidine-5-carboxylic acid (4-fluoro-benzyl)-methyl-amide] are > 1 µM and < 50%. `O=C(NCc1ccc(F)cc1)c1cnc(Nc2ccc(OC(F)(F)F)c(Cl)c2)nc1C(F)(F)F` [Example 111, 2-(3-Chloro-4-trifluoromethoxy-phenylamino)-4-trifluoromethyl-pyrimidine-5-carboxylic acid 4-fluoro-benzylamide]: the EC50 was > 1 µM and the Emax was < 50%. In the same order, the values of `O=C(O)Cc1cccc(Nc2ncc(C(=O)NCc3ccc(F)cc3)c(C(F)(F)F)n2)c1` [Example 112, {3-[(4-Fluoro-benzylcarbamoyl)-trifluoromethyl-pyrimidin-2-ylamino]-phenyl}-acetic acid] are > 1 µM and < 50%. For the compound `O=C(O)c1cc(Cl)cc(Nc2ncc(C(=O)NCc3ccc(F)cc3)c(C(F)(F)F)n2)c1` [Example 113, 3-Chloro-5-[(4-fluoro-benzylcarbamoyl)-trifluoromethyl-pyrimidin-2-ylarnino]-benzoic acid], the EC50 is > 1 µM and the Emax is < 50%.

`O=C(NCc1ccc(F)cc1)c1cnc(Nc2cc(C(F)(F)F)cc(C(F)(F)F)c2)nc1C(F)(F)F` [Example 114, 2-(3,5-Ditrifluoromethyl-phenylamino)-4-trifluoromethyl-pyrimidine-5-carboxylic acid 4-fluoro-benzylamide]: the EC50 was > 1 µM and the Emax is < 50%.
